These results are taken from ChEMBL document CHEMBL1795231, “Inhibitors of histone demethylases” (Bioorg Med Chem, 2011).

Broadly, the IC50 is the point on the concentration scale where inhibition reaches its midpoint. One may read the Ki as the equilibrium dissociation constant of an inhibitor or competing ligand from its target. A higher Ki goes with weaker binding.

Test [1] has as its target T1, Lysine-specific demethylase 4E (Homo sapiens, UniProt B2RXH2).
T1 sequence (B2RXH2 whole entry): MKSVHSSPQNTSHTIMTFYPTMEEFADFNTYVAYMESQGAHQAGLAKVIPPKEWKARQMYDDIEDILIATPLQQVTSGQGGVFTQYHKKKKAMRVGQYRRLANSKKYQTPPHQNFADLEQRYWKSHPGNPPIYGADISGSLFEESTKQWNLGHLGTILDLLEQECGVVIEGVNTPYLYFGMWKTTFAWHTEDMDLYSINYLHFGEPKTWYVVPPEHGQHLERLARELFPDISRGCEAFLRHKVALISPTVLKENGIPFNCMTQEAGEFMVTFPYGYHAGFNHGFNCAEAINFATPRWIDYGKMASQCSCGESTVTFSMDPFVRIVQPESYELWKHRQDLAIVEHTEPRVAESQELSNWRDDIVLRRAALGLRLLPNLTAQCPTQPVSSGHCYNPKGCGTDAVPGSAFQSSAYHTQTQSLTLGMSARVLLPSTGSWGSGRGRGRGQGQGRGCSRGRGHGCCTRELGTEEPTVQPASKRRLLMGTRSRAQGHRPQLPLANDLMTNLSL

Test [2] addresses T1, Lysine-specific demethylase 4E. The source holds these as a separate data set.
The target is the same in test [3]. The source holds these as a separate data set.
Test [4] shares this target. The source holds these as a separate data set.
For test [5] the target is unchanged. Kind of test: Uncompetitive inhibition of JMJD2E relative to alpha-ketoglutarate.
Test [6] has the same target. The source holds these as a separate data set.
For test [7], the target named is Egl nine homolog 1 (Homo sapiens, UniProt Q9GZT9). Put plainly: Inhibition of human PHD2.
Sequence of Egl nine homolog 1 (Q9GZT9 whole entry): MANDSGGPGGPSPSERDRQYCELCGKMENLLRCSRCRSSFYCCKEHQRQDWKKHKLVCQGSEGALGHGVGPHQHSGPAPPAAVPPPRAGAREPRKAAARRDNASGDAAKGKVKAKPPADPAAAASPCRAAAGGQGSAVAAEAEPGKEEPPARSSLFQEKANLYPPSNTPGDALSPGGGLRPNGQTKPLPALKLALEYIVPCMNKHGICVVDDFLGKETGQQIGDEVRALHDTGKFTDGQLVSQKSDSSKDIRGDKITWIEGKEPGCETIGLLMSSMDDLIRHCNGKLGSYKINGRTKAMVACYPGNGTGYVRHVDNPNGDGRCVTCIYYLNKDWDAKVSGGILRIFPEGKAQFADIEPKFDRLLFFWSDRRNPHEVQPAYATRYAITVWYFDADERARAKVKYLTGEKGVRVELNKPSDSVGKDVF
The target in test [8] is Hypoxia-inducible factor 1-alpha inhibitor (Homo sapiens, UniProt Q9NWT6). Kind of test: Inhibition of asparaginyl hydroxylase factor-inhibiting-HIF.
Sequence of Hypoxia-inducible factor 1-alpha inhibitor (Q9NWT6 whole entry): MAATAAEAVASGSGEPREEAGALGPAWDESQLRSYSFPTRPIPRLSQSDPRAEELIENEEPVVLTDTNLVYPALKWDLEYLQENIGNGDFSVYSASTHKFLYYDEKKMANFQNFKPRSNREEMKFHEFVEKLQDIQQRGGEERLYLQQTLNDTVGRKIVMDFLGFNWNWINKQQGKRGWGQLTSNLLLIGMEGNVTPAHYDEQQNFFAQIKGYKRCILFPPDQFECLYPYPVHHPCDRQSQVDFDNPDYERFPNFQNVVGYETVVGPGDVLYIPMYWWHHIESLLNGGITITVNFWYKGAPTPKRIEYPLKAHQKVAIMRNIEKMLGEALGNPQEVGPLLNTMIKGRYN
Test [9] deals with Lysine-specific histone demethylase 1A (Homo sapiens, UniProt O60341).

The molecule `O=C(O)C(=O)N[C@H](Cc1ccc(OS(=O)(=O)c2ccc(F)cc2)cc1)C(=O)O` had an IC50 in [1] of 5 µM. This counts as single-digit micromolar.
Same read-out and setting: with `CC(C)(C)c1ccc(S(=O)(=O)Oc2ccc(C[C@@H](NC(=O)C(=O)O)C(=O)O)cc2)cc1` the figure was 5 µM; with `COc1ccccc1CSC[C@@H](NC(=O)C(=O)O)C(=O)O`, 200 µM.
In turn, `CC1(C)CCC2=C(O1)c1ccccc1C(=O)C2=O` [LAPACHONE] showed an IC50 in [2] of 3 µM. For the same molecule, the inhibition constant Ki in test [3] was found to be 3.55 µM.
`O=C(O)C(=O)N[C@H](Cc1ccc(OS(=O)(=O)c2ccc(Br)cc2)cc1)C(=O)O` yielded an IC50 in [4] of 5.4 µM.
`C[C@@](Cc1ccc(O)c(O)c1)(NN)C(=O)O` [CARBIDOPA] registered a Ki in test [5] of 1.98 µM.
For the molecule `O=C(NO)c1cccc(O)c1`, the IC50 in test [6] was found to be 4.8 µM.
In [7], `O=C(O)C(=O)N[C@H](CCc1ccccc1)C(=O)O` gave an IC50 above 1000 µM. In [8], this molecule yielded an inhibitory constant (Ki) of 83 µM.
In test [2], `O=c1cc(-c2ccccc2)oc2cc(O)c(O)c(O)c12` [BAICALEIN] showed an IC50 of 3 µM. The molecule also yielded a Ki in test [3] of 4.33 µM.
`CC(C)COc1ccc(Cl)cc1C1CC1N` (stereo not given) gave an IC50 in test [9] of 9 µM.
The molecule `Oc1ccc(C2CNCCc3c2cc(O)c(O)c3Cl)cc1` (stereo not given) [FENOLDOPAM] registered a Ki in test [3] of 1.92 µM.
`O=C(O)C(=O)N[C@H](CSCc1ccccc1)C(=O)O` came in with an IC50 in test [1] of 200 µM.
